Test [1] relates to MAT-B. Kind of test: In vitro cytotoxicity, MAT-B. It counts as cell-based. The note with it: read-out: IC50 MAT-B. The procedure: (§1) The microculture tetrazolium assay was used to test in vitro cytotoxicity. This assay is described in Plumb, J. A. et al., 1989 Cancer Research 49, 4435-4440, which is herein incorporated by reference. The cytotoxicity of compounds towards tumor cells is measured in vitro using the assay. This assay method is based upon the ability of live, but not dead cells to reduce the yellow water soluble dye 3-(4,5-dimethylthiazol-2-yl)-2,5-diphenyltetrazolium bromide (MTT) to its water insoluble purple formazan product.
(§2) Cells are plated out in 100 μl of culture medium in the microtiter plates at a density of around 1,500-4,000 cells per well. The plates are incubated overnight to allow the cells to become adherent after which the test compound is added (100 μl of appropriate dilution per well). The cells are incubated with test compound at 37° C. for 48 h after which the compound is replaced with fresh medium. After a further 48 h incubation at 37° C., 50 μl of MTT solution (2 mg/ml) is added to each well. The plates are incubated in the dark for 4 h at 37° C. after which the medium is removed. The MTT formazan product is extracted from the cells by the addition of 200 μl DMSO followed by 50 μl of Sorensen's buffer. The plates are shaken briefly and the absorbance at 570 nm is read using a Molecular Devices UV max plate reader. […]

Test [2] has as its system MCF-7/ADR. The experiment in a line: In vitro cytotoxicity, MCF-7/ADR. The class given is cell-based. The following applies: Homo sapiens, NCI/ADR-RES, read-out: IC50 MCF-7/ADR. As for the experimental part: as §1, §2
For test [3], the system named is MCF-7. Kind of test: In vitro cytotoxicity, MCF-7. It counts as cell-based. The note with it: Homo sapiens, MCF7, read-out: IC50 MCF-7. As for the experimental part: as §1, §2
The subject of test [4] is MAT-B/ADR. The experiment in a line: In vitro cytotoxicity, MAT-B/ADR. The following applies: read-out: IC50 MAT-B/ADR. It counts as cell-based. The procedure: as §1, §2
For test [5] the following is noted: literature; cited from earlier work.
For test [6] the following is noted: literature; cited from earlier work. The source holds these as a separate data set.

Each structure is given as a SMILES string.

As to `COc1cccc2c1C(=O)c1c(O)c3c(c(O)c1C2=O)C[C@@](O)(C(=O)CO)C[C@@H]3O[C@H]1C[C@H](N)[C@H](O)[C@H](C)O1` [Adriamycin, reference compound], the IC50 in test [1] turned out to be 4.6 nM; in test [2], 6.5 µM; in test [3], 5 nM; in test [4], 2500 nM.

On to `CC1O[C@H]2CC(=O)O[C@H]2C2=C1C(=O)c1c(O)c3c(c(O)c1C2=O)[C@H]1C[C@@H](O)[C@]3(O)[C@@H](C)O1` (stereo partly shown) [Granaticin], for which the antitumor activity entry in test [5] is recorded as “reported to show antitumor activity”.

In the case of `C[C@@H]1O[C@@H](CC(=O)O)CC2=C1C(=O)c1c(O)cccc1C2=O` [nanaomycin A], the “antibacterial as well as antifungal activity” value in test [6] is reported as “potent antibacterial as well as antifungal activity”.

Consider `COC(=O)C1CC2=C(C(=O)c3c(cc4ccccc4c3O)C2=O)C(O[C@H]2C[C@H](NC(=O)C(F)(F)F)[C@H](O)[C@H](C)O2)O1` (stereo partly shown) [pyranoanthraquinone (H)], for which the antitumor activity result in test [5] was “found to possess antitumor activity”.

Source of the values: patent US5606037A, “Processes antineoplastic heteronaphthoquinones” (BioChem Pharma Inc., priority 1995, dated 1997).
